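Compound exposure: 48 hours, 5 concentrations, 96-well plates. Here, GI50 denotes the concentration required for 50% inhibition of growth. The concentration for full growth arrest is given as TGI.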 Where a SMILES comes first, the peptide text is derived from it. The star is where a group is joined. Bn = c1ccc(C*)cc1
Tests used:
Assay in all cases: NCI-60 cell line screen, 48 h
786-0 renal = tested on: 786-0 renal
HCT-116 colon = tested on: HCT-116 colon
CCRF-CEM leukemia = tested on: CCRF-CEM leukemia
MDA-MB-231 breast = tested on: MDA-MB-231 breast
SW-620 colon = tested on: SW-620 colon
HOP-62 NSCLC = tested on: HOP-62 NSCLC
NCI-H23 lung = tested on: NCI-H23 lung
A549 NSCLC = tested on: A549 NSCLC
IGROV1 ovarian = tested on: IGROV1 ovarian

Row | SMILES | TGI (786-0 renal) [µM] | TGI (HCT-116 colon) [µM] | TGI (CCRF-CEM leukemia) [µM] | TGI (MDA-MB-231 breast) [µM] | TGI (SW-620 colon) [µM] | TGI (HOP-62 NSCLC) [µM] | TGI (NCI-H23 lung) [µM] | TGI (A549 NSCLC) [µM] | TGI (IGROV1 ovarian) [µM] | GI50 (HCT-116 colon) [µM] | GI50 (CCRF-CEM leukemia) [µM] | GI50 (MDA-MB-231 breast) [µM] | GI50 (SW-620 colon) [µM] | GI50 (HOP-62 NSCLC) [µM] | GI50 (NCI-H23 lung) [µM] | GI50 (A549 NSCLC) [µM] | GI50 (IGROV1 ovarian) [µM]
1 | C[C@]1(S(=O)(=O)c2ccccc2)C[C@H]2N(Cc3ccccc3)[C@@H]1CCC21OCCO1 | > 100 | > 100 | > 100 | > 100 | > 100 | > 100 | > 100 | > 100 | > 100 |  |  |  |  |  |  |  | 
2 | COC(=O)c1cc(C)ccc1CC(Cc1ccc(C)cc1)C(=O)OC (stereo unspecified) | > 100 | > 100 | > 100 | > 100 | > 100 | > 100 | > 100 | > 100 | > 100 |  |  |  |  |  |  |  | 
3 | COC(=O)C(CC(C)C)NC(=O)C(N)Cc1ccc(OCc2ccccc2)cc1 (stereo unspecified) (H-Tyr(Bn)-Leu-OMe; configuration not given here) | > 10 | > 10 | > 10 | > 10 | > 10 | > 10 | > 10 | > 10 | > 10 |  |  |  |  |  |  |  | 
4 | COc1ccc(N=Nc2c3c(c(O)c4ccccc24)CCC(C)(C)O3)cc1 | 73.8 | 28.9 | 41.7 | 63.9 | > 100 | 52.9 | 34.4 | 39 | 35.5 |  |  |  |  |  |  |  | 
5 | O=C1CCCc2cc3c(cc21)CC1(C3)Cc2ccc3c(c2C1)C(=O)CCC3 (stereo unspecified) | > 100 | > 100 | 58.8 | > 100 | > 100 | > 100 | > 100 | > 100 | > 100 |  |  |  |  |  |  |  | 
6 | CCOC(=O)C1CN(C2CC2)CCC1=O (stereo unspecified) | > 100 | > 100 | > 100 | > 100 | > 100 | > 100 | > 100 | > 100 | > 100 |  |  |  |  |  |  |  | 
7 | COC(=O)[C@H](Cc1ccccc1)NC(=O)c1ccc(CNC(=O)/C=C/c2cccc(Oc3ccccc3)c2)cc1 | > 100 | > 100 | > 100 | 48.6 | > 100 | > 100 | > 100 | > 100 | 42.6 |  |  |  |  |  |  |  | 
8 | COP(=O)(OC)C12CCOCCN1c1ccccc1C2=O (stereo unspecified) | > 100 | > 100 | > 100 | > 100 | > 100 | > 100 | > 100 | > 100 | > 100 |  |  |  |  |  |  |  | 
9 | COc1ccc(N=NC(=Nc2ccc(F)cc2)c2ccc(N(CCC#N)CCC#N)cc2)cc1 | > 100 | > 100 | > 100 | 52.8 | > 100 | > 100 | 65.6 | 43.1 | 77.7 |  |  |  |  |  |  |  | 
10 | O=C1CC(Sc2nc3ccc(I)cc3c(=O)n2Cc2ccccc2)C(=O)NN1 (stereo unspecified) | 28.4 | 29.1 | 24.1 | 29.3 | 35.2 | 35.1 | 30.1 | 89.4 | 25.2 |  |  |  |  |  |  |  | 
11 | O=C1CCc2ccc3c(c21)CC1(Cc2ccccc2C1)C3 | 48.1 | 17.6 | > 100 | 40.2 | > 100 | > 100 | > 100 | 29.6 | > 100 |  |  |  |  |  |  |  | 
12 | CC(C)(C)OC(=O)n1c(-c2ccccc2F)cc(=O)c2cc3c(cc21)OCO3 | > 44.3 | > 31.8 | 11.1 |  | > 100 | > 100 | > 100 | > 39.7 |  |  |  |  |  |  |  |  | 
13 | COc1ccc(-c2csc(NC(=O)CSc3nc(C)c(-c4ccccc4)n3Nc3ccccc3)n2)cc1 |  | > 100 | > 100 | > 100 | > 100 | > 100 | > 100 | > 100 | > 100 | 5.32 | 3.92 | 13.3 | 51.9 | 47.8 | 4.96 | 4.87 | 4.25
14 | CCCCN(CCCC)C(=C(C(Cl)=C(Cl)Cl)[N+](=O)[O-])N(CCCC)CCCC | > 100 | > 100 |  | > 100 |  | > 100 | > 100 | > 100 |  |  |  |  |  |  |  |  | 
15 | O=C(CNCc1ccccc1)Oc1c(Cl)c(Cl)c(Cl)c(Cl)c1Cl | > 100 | > 100 |  | 69.1 | 84.5 | > 100 | > 100 | 69.1 | > 100 |  |  |  |  |  |  |  | 
16 | COC(=O)C1=C(O)C(C(=O)OC)[C@@]2(O)[C@@H](C(=O)OC)[C@H](C)[C@@H](C)[C@@H]1[C@@H]2C(=O)OC (stereo partly specified) |  | > 100 | > 100 | > 100 |  | > 100 | > 100 |  |  |  |  |  |  |  |  |  | 
17 | C=C(C)[C@@]1(O[Si](C)(C)C)CCCC[C@@H]1CC(Sc1ccccc1)Sc1ccccc1 | 28.6 |  | 36.2 | 32.1 | 30.2 | 27.5 | 30.9 | 23.1 | 32.7 |  |  |  |  |  |  |  | 
18 | Cc1ccc(S(=O)(=O)NC(=O)NNc2ccc(F)cc2)cc1 | > 100 | > 100 | > 100 | > 100 | > 100 | > 100 |  | > 100 | > 100 |  |  |  |  |  |  |  | 
19 | CCCCC/C(C=O)=C\c1ccccc1 | > 100 | > 100 | > 100 | > 100 | > 100 | > 100 | > 100 |  | > 100 |  |  |  |  |  |  |  | 
20 | CC(C)CCn1nc(N)c2nc3ccccc3nc21 | > 100 | > 100 | > 100 |  | > 100 | > 100 | > 100 | > 100 | > 100 |  |  |  |  |  |  |  | 
21 | CSC(SC)=C1C(=O)N(c2ccccc2)N=C1C | 62 | 54 | 49.8 | > 100 | > 100 | > 100 |  | > 100 | 93.5 |  |  |  |  |  |  |  | 
22 | Cc1cn([C@H]2C[C@](C)(CO)N(C)O2)c(=O)[nH]c1=O | > 100 | > 100 |  | > 100 | > 100 | > 100 | > 100 | > 100 | > 100 |  |  |  |  |  |  |  | 
23 | O=C(O)CSC(NC(=O)C(C(F)(F)F)C(F)(F)F)(C(F)(F)F)C(F)(F)F | > 100 | > 100 | > 100 |  | > 100 |  | > 100 | > 100 | > 100 |  |  |  |  |  |  |  | 

From PubChem BioAssay (NCI)
